Consider 33 compounds from patent US11045457B2, “Piperidinyl-3-(aryloxy)propanamides and propanoates” (priority 2018, dated 2021).

The experiment addresses SSTR4 (Homo sapiens (Human), UniProt P31391). Put plainly: Inhibition of forskolin stimulated cAMP in CHO-K1 cells overexpressing SSTR4. The format is cell-based. The note with it: for EC50: read-out: SSTR4 Activity pEC50 (converted). How it is done: Inhibition of Forskolin Stimulated cAMP in Cells Overexpressing SSTR4
This cell-based assay measures the ability of compounds to inhibit forskolin stimulated cAMP in CHO-K1 cells overexpressing SSTR4. CHO-K1 cells overexpressing SSTR4 (CHO-SSTR4) are purchased from DiscoveRx (product code 95-0059C2). The CHO-SSTR4 cells are maintained in F12K media with 10% Fetal Bovine Serum (Hyclone), 1% Pen/Strep (Life Technologies), and 800 μg/mL G418 (Life Technologies). […] The next day, the culture media is removed from the cells and the cells are washed (added then removed) with Kreb's Ringer Buffer (ZenBio, KRB-1000 mL). […] The cells are incubated in […] for 30 minutes at room temperature. Cellular cAMP levels are detected with a HTRF LANCE Ultra cAMP kit (Perkin Elmer, catalog number TRF0264).
The assay is performed in accordance with the manufacturer's instructions. Five μL of diluted Eu-W8044 labeled streptavidin (dilution: 1:50 in cAMP Detection Buffer) is added to each well. Then 5 μL of diluted biotin cAMP (dilution: 1:150 in cAMP Detection Buffer) is added to each well. The plates are covered and allowed to incubate for 60 minutes at room temperature on a shaker. […] The pEC50 values are generated using Activity Base for Screening Data Management.

SSTR4, sequence (P31391 whole entry): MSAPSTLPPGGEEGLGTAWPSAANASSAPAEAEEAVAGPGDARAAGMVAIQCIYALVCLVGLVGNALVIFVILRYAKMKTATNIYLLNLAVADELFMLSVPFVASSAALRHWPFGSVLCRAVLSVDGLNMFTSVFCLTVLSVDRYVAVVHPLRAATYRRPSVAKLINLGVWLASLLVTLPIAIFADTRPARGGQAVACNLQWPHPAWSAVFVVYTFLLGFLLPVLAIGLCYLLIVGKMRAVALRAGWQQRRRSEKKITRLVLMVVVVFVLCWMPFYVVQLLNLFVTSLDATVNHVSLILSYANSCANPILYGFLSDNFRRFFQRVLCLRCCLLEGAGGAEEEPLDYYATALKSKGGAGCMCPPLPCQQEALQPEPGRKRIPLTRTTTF

For the compound `CN1CCC(NC(=O)C(C)(C)COc2ncccc2C(F)F)CC1` [Example 90, 3-((3-(difluoromethyl)pyridin-2-yl)oxy)-2,2-dimethyl-N-(1-methylpiperidin-4-yl)propanamide], the “SSTR4 Activity pEC50” value amounted to 6.6.
As for `C[C@H]1C[C@H](NC(=O)C(C)(C)COc2ncccc2C(F)(F)F)CN1C` (relative stereo) [Example 133, trans-N-(1,5-dimethylpyrrolidin-3-yl)-2,2-dimethyl-3-((3-(trifluoromethyl)pyridin-2-yl)oxy)propanamide], the EC50 is 0.631 µM.
In the case of `CC(C)(COc1ncccc1C(F)(F)F)C(=O)N[C@@H]1CNC[C@H]1F` (relative stereo) [Example 130, trans-N-(4-fluoropyrrolidin-3-yl)-2,2-dimethyl-3-((3-(trifluoromethyl)pyridin-2-yl)oxy)propanamide], the EC50 is 0.251 µM.
`CN1CCC(NC(=O)C(C)(C)COc2nccc3occc23)CC1` [Example 99, 3-(furo[3,2-c]pyridin-4-yloxy)-2,2-dimethyl-N-(1-methylpiperidin-4-yl)propanamide]: the “SSTR4 Activity pEC50” value came to 7.1.
As for `Cc1cnc(OCC(C)(C)C(=O)N[C@H]2CCN(C)C[C@H]2C)c(C)c1` (relative stereo) [Example 32, cis-N-(1,3-dimethylpiperidin-4-yl)-3-((3,5-dimethylpyridin-2-yl)oxy)-2,2-dimethylpropanamide], the “SSTR4 Activity pEC50” value is recorded as 5.8.
Regarding `Cc1cccnc1OCC(C)(C)C(=O)N[C@@H]1CN(C)C[C@H]1c1ccc(C(F)(F)F)nc1` (relative stereo) [Example 57, trans-2,2-dimethyl-N-(1-methyl-4-(6-(trifluoromethyl)pyridin-3-yl)pyrrolidin-3-yl)-3-((3-methylpyridin-2-yl)oxy)propanamide], the EC50 is 0.0631 µM.
With `Cc1cc(Cl)cnc1OCC(C)(C)C(=O)NC1CCN(C)CC1` [Example 48, 3-((5-chloro-3-methylpyridin-2-yl)oxy)-2,2-dimethyl-N-(1-methylpiperidin-4-yl)propanamide], the “SSTR4 Activity pEC50” value was found to be 6.8.
On the same count and under the same terms, then `CN1CCC(NC(=O)C(C)(C)COc2ncccc2C(F)(F)F)C(C)(C)C1` (stereo not drawn) [Example 112, 2,2-dimethyl-3-((3-(trifluoromethyl)pyridin-2-yl)oxy)-N-(1,3,3-trimethylpiperidin-4-yl)propanamide], with 6.1.
The same measure, in the same setting: then `Cc1cccc(C#N)c1OCC(C)(C)C(=O)NC1CCN(C)CC1` [Example 77, 3-(2-cyano-6-methylphenoxy)-2,2-dimethyl-N-(1-methylpiperidin-4-yl)propanamide], with 6.4.
On the same count and under the same terms, then `C[C@H]1CN(C)CC[C@@H]1NC(=O)C(C)(C)COc1ccccc1Cl` [Example 193, 3-(2-chlorophenoxy)-N-((3S,4S)-1,3-dimethylpiperidin-4-yl)-2,2-dimethylpropanamide], with 8.9.
Consider `CN1CCC(NC(=O)C(C)(C)COc2cccc3c2CCC3)CC1` [Example 79, 3-((2,3-dihydro-1H-inden-4-yl)oxy)-2,2-dimethyl-N-(1-methylpiperidin-4-yl)propanamide], for which the “SSTR4 Activity pEC50” value is on record as 7.0.
Still for that read-out and setting: under `CN1CCC(NC(=O)C(C)(C)COc2ccc(C#N)cc2C(F)(F)F)CC1` [Example 73, 3-(4-cyano-2-(trifluoromethyl)phenoxy)-2,2-dimethyl-N-(1-methylpiperidin-4-yl)propanamide] stands 7.0; under `Cc1cccnc1OCC(C)(C)C(=O)N[C@@H]1CCN(C)C[C@H]1C` [Example 142, N-((3R,4R)-1,3-dimethylpiperidin-4-yl)-2,2-dimethyl-3-((3-methylpyridin-2-yl)oxy)propanamide], 6.1; under `Cc1ccc(C2CC2)c(OCC(C)(C)C(=O)NC2CCN(C)CC2)n1` [Example 9, 3-((3-cyclopropyl-6-methylpyridin-2-yl)oxy)-2,2-dimethyl-N-(1-methylpiperidin-4-yl)propanamide], 7.1.
On the same count and under the same terms, under `CN1CCC(NC(=O)C(C)(C)COc2ncccc2F)CC1` [Example 39, 3-((3-fluoropyridin-2-yl)oxy)-2,2-dimethyl-N-(1-methylpiperidin-4-yl)propanamide] stands 6.3; under `CN1CCC(NC(=O)C(C)(C)COc2ccc(Cl)cc2)CC1` [Example 217, 3-(4-chlorophenoxy)-2,2-dimethyl-N-(1-methylpiperidin-4-yl)propanamide], 5.8.
Still for that read-out and setting: then `CC(C)[C@@H]1CN(C)CC[C@@H]1NC(=O)C(C)(C)COc1ncccc1C(F)(F)F` (relative stereo) [Example 34, cis-N-(3-isopropyl-1-methylpiperidin-4-yl)-2,2-dimethyl-3-((3-(trifluoromethyl)pyridin-2-yl)oxy)propanamide], with 6.1; and `Cc1cc(C2CC2)cnc1OCC(C)(C)C(=O)NC1CCN(C)CC1` [Example 8, 3-((5-cyclopropyl-3-methylpyridin-2-yl)oxy)-2,2-dimethyl-N-(1-methylpiperidin-4-yl)propanamide], with 7.0; and `Cc1cnc(OCC(C)(C)C(=O)N[C@@H]2CCN(C)C[C@H]2C)c(C)c1` (single isomer, unassigned) [Example 140], with 6.2.
In the case of `CN1CC[C@@H](NC(=O)C(C)(C)COc2ncccc2OC(F)(F)F)[C@H](c2cnn(C(F)F)c2)C1` (relative stereo) [Example 126, trans-N-(3-(1-(difluoromethyl)-1H-pyrazol-4-yl)-1-methylpiperidin-4-yl)-2,2-dimethyl-3-((3-(trifluoromethoxy)pyridin-2-yl)oxy)propanamide], the EC50 is 0.00158 µM.
As to `Cc1cnc(OCC(C)(C)C(=O)N[C@@H]2CCN(C)C2)c(C2CC2)c1` [Example 7, (R)-3-((3-cyclopropyl-5-methylpyridin-2-yl)oxy)-2,2-dimethyl-N-(1-methylpyrrolidin-3-yl)propanamide], the “SSTR4 Activity pEC50” value is listed as 7.2.
On the same count and under the same terms, then `CC(C)(COc1ncccc1C(F)(F)F)C(=O)NC1CCNCC1(F)F` (stereo not drawn) [Example 159, N-(3,3-difluoropiperidin-4-yl)-2,2-dimethyl-3-((3-(trifluoromethyl)pyridin-2-yl)oxy)propanamide], with 6.7; and `CN1CCC(NC(=O)C(C)(C)COc2ncccc2Cl)CC1` [Example 38, 3-((3-chloropyridin-2-yl)oxy)-2,2-dimethyl-N-(1-methylpiperidin-4-yl)propanamide], with 7.0.
Still for that read-out and setting: then `Cc1cnc(OCC(C)(C)C(=O)NC2CCN(C)CC2)c(C(F)(F)F)c1` [Example 101, 2,2-dimethyl-3-((5-methyl-3-(trifluoromethyl)pyridin-2-yl)oxy)-N-(1-methylpiperidin-4-yl)propanamide], with 7.3.
With `C[C@H]1C[C@H](NC(=O)C(C)(C)COc2ncccc2OC(F)(F)F)CCN1C` (relative stereo) [Example 135, trans-N-(1,2-dimethylpiperidin-4-yl)-2,2-dimethyl-3-((3-(trifluoromethoxy)pyridin-2-yl)oxy)propanamide], the EC50 was 0.0251 µM.
`CN1CCC(NC(=O)C(C)(C)COc2ncccc2C#N)CC1` [Example 3, 3-((3-cyanopyridin-2-yl)oxy)-2,2-dimethyl-N-(1-methylpiperidin-4-yl)propanamide]: the “SSTR4 Activity pEC50” value is recorded as 5.8.
The same measure, in the same setting: then `CCc1ccccc1OCC(C)(C)C(=O)NC1CN(C)CC1c1ccccc1` (stereo not drawn) [Example 97, 3-(2-ethylphenoxy)-2,2-dimethyl-N-(1-methyl-4-phenylpyrrolidin-3-yl)propanamide], with 7.9; and `CN1CCC(NC(=O)C(C)(C)COc2ncc(Br)cc2C(F)(F)F)CC1` [Example 100, 3-((5-bromo-3-(trifluoromethyl)pyridin-2-yl)oxy)-2,2-dimethyl-N-(1-methylpiperidin-4-yl)propanamide], with 7.2; and `C[C@@H]1C[C@@H](NC(=O)C(C)(C)COc2ncccc2C(F)(F)F)CCN1C` [Example 177, N-((2R,4S)-1,2-dimethylpiperidin-4-yl)-2,2-dimethyl-3-((3-(trifluoromethyl)pyridin-2-yl)oxy)propanamide], with 6.9.
Still for that read-out and setting: under `CN1CCC(NC(=O)C(C)(C)COc2cnccc2C(F)(F)F)CC1` [Example 42, 2,2-dimethyl-N-(1-methylpiperidin-4-yl)-3-((4-(trifluoromethyl)pyridin-3-yl)oxy)propanamide] stands 7.2; under `CN1CC[C@H](CNC(=O)C(C)(C)COc2ncccc2C(F)(F)F)C1` [Example 36, (R)-2,2-dimethyl-N-((1-methylpyrrolidin-3-yl)methyl)-3-((3-(trifluoromethyl)pyridin-2-yl)oxy)propanamide], 6.1.
For the compound `CC[C@H]1[C@H](NC(=O)C(C)(C)COc2ncccc2C(F)(F)F)CCN1C` (relative stereo) [Example 149, trans-N-(2-ethyl-1-methylpyrrolidin-3-yl)-2,2-dimethyl-3-((3-(trifluoromethyl)pyridin-2-yl)oxy)propanamide], the EC50 was 0.126 µM.
Regarding `CCOc1cccnc1OCC(C)(C)C(=O)NC1CCN(C)CC1` [Example 54, 3-((3-ethoxypyridin-2-yl)oxy)-2,2-dimethyl-N-(1-methylpiperidin-4-yl)propanamide], the “SSTR4 Activity pEC50” value is 7.0.
